Entries after “also recorded” stand apart in the source; their conditions may differ.
B1: IFN-γ: recombinant human interferon gamma added to Mreg-T cell co-cultures (protein, UniProt P01579 24-161, looked up)
Interferon gamma: QDPYVKEAENLKKYFNAGHSDVADNGTLFLGILKNWKEESDRKIMQSQIVSFYFKLFKNFKDDQSIQKSVETIKEDMNVKFFNSNKKKRDDFEKLTNYSVTDLNVQRKAIHELIQVMAELSPAAKTGKRKRSQMLFRG

Key:
Foxp3+CD25+ iTreg cells [1] = experiment: Mreg co-culture with naïve CD4+ T cells in lidded FACS tubes, iTreg analysis by flow cytometry; assay type: cell-based, human; conditions: tacrolimus 1 nM to 10 μM during co-culture; n=3 donors; FIG. 1
Description: (§1) A preparation of human Mregs (“Mreg B”) was prepared in 75 cm^2 flasks according to a modified protocol of Hutchinson. Peripheral blood mononuclear cells (PBMC) were obtained from a healthy donor for use as starting material for Mreg generation. The donor was screened for relevant disease markers, including infectious diseases, not more than 30 days prior to collection of PBMC. The donor was re-screened for the same disease markers on the day of leucocyte donation. PBMC were obtained by leukapheresis using the Spectra Optia® device. Human Mregs can also be generated from leukapheresates collected with alternative devices or from whole blood samples. PBMC from leukapheresis products were further purified by Ficoll-gradient centrifugation. CD14^+ monocytes were isolated from Ficoll-separated, washed PBMC by positive magnetic bead selection using research-grade CD14 microbeads (Miltenyi Biotec, GmbH) in accordance with the manufacturer's instructions. The preparation of isolated monocytes was quality-controlled for viability and purity of CD14^+ cells and contamination with CD3^+ T cells by flow cytometry. Isolated monocytes were resuspended in Mreg culture medium at a density of 7.5×10^5 viable monocytes/ml then plated in Cell+T75 flasks (Sarstedt) at 2×10^5 viable monocytes/cm^2 in a total volume of 20 ml medium. […]

Foxp3+CD25+ iTreg cells [2] = experiment: Mreg-induced iTreg assay: Mreg co-culture with allogeneic CD3+ T cells in 96 well plates; assay type: cell-based; conditions: recombinant human IFN-γ 0-100 ng/ml during co-culture; n=8 donors; p<0.0001; FIG. 6
Description: as §1

Row | Molecule | Mreg-mediated iTreg generation (Foxp3+CD25+ iTreg cells) (Foxp3+CD25+ iTreg cells [1]) | iTreg generation versus IFN-γ concentration in the co-culture phase (linear regression) (Foxp3+CD25+ iTreg cells [2])
1 | C=CC[C@@H]1/C=C(\C)C[C@H](C)C[C@H](OC)[C@H]2O[C@@](O)(C(=O)C(=O)N3CCCC[C@H]3C(=O)O[C@H](/C(C)=C/[C@@H]3CC[C@@H](O)[C@H](OC)C3)[C@H](C)[C@@H](O)CC1=O)[C@H](C)C[C@@H]2OC [tacrolimus] | inhibited the formation of Foxp3+CD25+ iTreg cells in a dose-dependent manner; also recorded: potently suppressed iTreg generation in a dose-dependent manner | –
2 | B1 | – | significant dose-dependent relationship
